Legend:
eGFP-SLX4 and MUS81 = experiment: Chromatin residency of eGFP-SLX4 and MUS81 (chromatin-fraction co-IP); type: cell-based, human; settings: acute CDK1 inhibition, eGFP-SLX4 Co-IP from mitotic chromatin
Protocol: Cell pellets stored at −80 °C were thawed on ice, followed by addition of ten volumes to 1 NIB-250 (15 mM Tris-HCL (pH 7.5), 60 mM KCl, 15 mM NaCl, 5 mM MgCl2, 1 mM CaCl2, 250 mM sucrose) containing 1 mM DTT, 1x cOmplete, EDTA-free Protease Inhibitor +0.3% NP. The cells were mixed by pipetting gently and then incubated on ice for 10 min. The cell pellet was then centrifuged at 400–600 x g for 5 min at 4 °C. The supernatant was transferred to a separate tube (cytoplasmic fraction). The nuclei pellet was then resuspended in ten volumes of 10:1 NIB-250 without detergent containing 1 mM DTT and 1x cOmplete, EDTA-free Protease Inhibitor. The nuclei were then pelleted by centrifugation at 400–600 x g for 5 min at 4 °C and the supernatant was discarded. The pellet was then resuspended 7 volumes relative to pellet volume of hypotonic buffer (3 mM EDTA, 0.2 mM EGTA containing 1 mM DTT and 1x cOmplete, EDTA-free Protease Inhibitor) and incubated on ice for 30 min, vortexing every 5 min. The insoluble chromatin fraction was collected by centrifugation for 4 min at 1700 x g. The supernatant, was retained, containing the nucleoplasm fraction. The chromatin pellet was washed with hypotonic buffer containing 1 mM DTT and protease inhibitors and the above centrifugation was repeated. The supernatant was discarded and the pellet retained and used as starting material for immunoprecipitation experiments. […]

RPE1 p53-/- cells = experiment: Immunofluorescence foci, RPE1 p53-/- cells; type: cell-based, human; settings: RPE1 p53-/- cells treated with aphidicolin followed by acute CDK1i
Protocol: Immunofluorescence microscopy […] For detection of micronuclei, cells were fixed in 250 mM HEPES pH 7.5, 0.1% Triton X-100, 4% PFA in PBS for 20 minutes at 4 °C. Coverslips were then incubated for 5 min in 1x PBS with three buffer changes followed by incubation with 0.5% Triton X-100/ PBS for 10 min at room temperature. Coverslips were then incubated for 5 minutes in 1x PBS with three buffer changes. For EdU detection coverslips were transferred to a humidified chamber and incubated in EdU click it reaction buffer containing Alexafluor 488 azide for 1 h at room temperature followed by three 5 min washes in 1x PBS. Coverslips were then incubated in 5% FBS/PBS for 1 h followed by overnight incubation at 4 °C with primary antibody diluted in 5% FBS/PBS. Coverslips were then washed 3 × 5 min in 1x PBS followed by 1 h incubation at room temperature in 5% FBS/PBS containing secondary antibodies. Coverslips were incubated a further three times for 5 min in 1x PBS. Coverslips were then mounted on superfrost microscopy slides using Vectashield mounting medium with DAPI (Vector laboratories, […]). […] Cells were fixed in […] for 15 min at room temperature, followed by 3 × 5 min washes in 1xPBS. Coverslips were then incubated in 0.5% Triton-X/PBS for 10 min at room temperature, followed by a further 3 × 5 min 1xPBS washes. Coverslips were then incubated in blocking buffer (2% BSA, 0.05% Tween-20) for 1 h at room temperature, followed by incubation in respective primary antibodies overnight at 4 °C. Coverslips were then washed 3x for 5 min in 1x PBS followed by incubation for 1 h at room temperature in blocking buffer containing secondary antibodies. Coverslips were then washed 3x for 5 min in 1x PBS and mounted with Vectashield PLUS antifade mounting medium with DAPI (Vector laboratories, […]). Images were acquired using a Zeiss Axio Observer Z1 MarianasTM Microscope attached with a CSU-SoRa spinning disk unit using either a Photometrics Kinetix sCMOS camera built by Intelligent Imaging Innovations (3i) or a Zeiss Axio Observer Z1 MarianasTM Microscope attached with a CSUX1 spinning disk unit and Hamamatsu Flash 4 CMOS camera built by Intelligent Imaging Innovations (3i) or using an Opera Phenix Plus high content imaging system (Revvity). In each case 405, 488 and 640 laser lines were used in addition to DAPI, GFP/FITC, iRFP/CY5 emission filters. Quantification was carried out using FIJI (ImageJ, RRID:SCR_003070) software, CellProfiler (Broad Institute), Harmony (Revvity) or using […] Microsystems). Images of mitotic cells were analysed in 3D with maximum Z projections used for representative images in the manuscript to assist with visualisation.For interphase cells 2D images were analysed.

**Q.** What does the source list for `O=C1NC(=NCc2cccs2)S/C1=C\c1ccc2ncccc2c1` [CDK1i]?
**A.** chromatin residency of eGFP-SLX4 and MUS81 (eGFP-SLX4 and MUS81): markedly impaired chromatin residency of eGFP-SLX4 and MUS81; MUS81 and TOPBP1 foci formation in prometaphase (RPE1 p53-/- cells): impairment of MUS81 and TOPBP1 foci formation in prometaphase cells
